Assay results as given in ChEMBL document CHEMBL3881524, “Use of benzothiazepines having activity as inhibitors of ileal bile acid transport for reducing cholesterololemia” (2005).

Experiments:
Format in all cases: functional
Mus musculus [1] = test: Reduction in plasma total cholesterol level in LDL receptor/ApoE deficient mouse at […] dosed via gavage route once daily in afternoon for first three days and in morning the last day by FPLC method relative to untreated control; set-up: scale not given: the % may be the effect or the level left
Mus musculus [2] = test: Effect on plasma HDL level in LDL receptor/ApoE deficient mouse at 10 umol/kg/day dosed via gavage route once daily in afternoon for first three days and in morning the last day by FPLC method relative to untreated control
Mus musculus [3] = test: Reduction in plasma cholesterol in LP-remnants plus LDL/HDL ratio level in LDL receptor/ApoE deficient mouse at 10 umol/kg/day dosed via gavage route and co-administered with 80 to 100 mg/kg/day mixed with R3 chow diet for 7 days relative to untreated control; set-up: scale not given: the % may be the effect or the level left
Mus musculus [4] = test: Reduction in plasma LDL level in LDL receptor/ApoE deficient mouse at 10 umol/kg/day dosed via gavage route once daily in afternoon for first three days and in morning the last day by FPLC method relative to untreated control; set-up: scale not given: the % may be the effect or the level left
Mus musculus [5] = test: Reduction in plasma total cholesterol level in LDL receptor/ApoE deficient mouse at 10 umol/kg/day dosed via gavage route once daily in afternoon for first three days and in morning the last day by FPLC method relative to untreated control; set-up: scale not given: the % may be the effect or the level left
Mus musculus [6] = test: Effect on plasma triglyceride level in LDL receptor/ApoE deficient mouse at 10 umol/kg/day dosed via gavage route once daily in afternoon for first three days and in morning the last day relative to untreated control
Mus musculus [7] = test: Effect on plasma HDL level in LDL receptor/ApoE deficient mouse at 10 umol/kg/day dosed via gavage route and co-administered with 80 to 100 mg/kg/day mixed with R3 chow diet for 7 days relative to untreated control
Mus musculus [8] = test: Reduction in plasma total cholesterol level in LDL receptor/ApoE deficient mouse at 10 umol/kg/day dosed via gavage route and co-administered with 80 to 100 mg/kg/day mixed with R3 chow diet for 7 days relative to untreated control; set-up: scale not given: the % may be the effect or the level left
Mus musculus [9] = test: Effect on plasma triglyceride level in LDL receptor/ApoE deficient mouse at 10 umol/kg/day dosed via gavage route and co-administered with 80 to 100 mg/kg/day mixed with R3 chow diet for 7 days relative to untreated control
Mus musculus [10] = test: Reduction in plasma cholesterol in LP-remnants plus LDL/HDL ratio level in LDL receptor/ApoE deficient mouse at 10 umol/kg/day dosed via gavage route once daily in afternoon for first three days and in morning the last day by FPLC method relative to untreated control; set-up: scale not given: the % may be the effect or the level left
Mus musculus [11] = test: Reduction in plasma cholesterol in LP-remnants in LDL receptor/ApoE deficient mouse at 10 umol/kg/day dosed via gavage route once daily in afternoon for first three days and in morning the last day by FPLC method relative to untreated control; set-up: scale not given: the % may be the effect or the level left
Mus musculus [12] = test: Reduction in plasma total cholesterol level in LDL receptor/ApoE deficient mouse at 0.625 umol/kg/day dosed via gavage route once daily in afternoon for first three days and in morning the last day by FPLC method relative to untreated control; set-up: scale not given: the % may be the effect or the level left
Mus musculus [13] = test: Reduction in plasma LDL level in LDL receptor/ApoE deficient mouse at 10 umol/kg/day dosed via gavage route and co-administered with 80 to 100 mg/kg/day mixed with R3 chow diet for 7 days relative to untreated control; set-up: scale not given: the % may be the effect or the level left
Mus musculus [14] = test: Reduction in plasma cholesterol in LP-remnants in LDL receptor/ApoE deficient mouse at 10 umol/kg/day dosed via gavage route and co-administered with 80 to 100 mg/kg/day mixed with R3 chow diet for 7 days relative to untreated control; set-up: scale not given: the % may be the effect or the level left
Mus musculus [15] = test: Reduction in plasma LDL level in LDL receptor/ApoE deficient mouse at […] dosed via gavage route once daily in afternoon for first three days and in morning the last day by FPLC method relative to untreated control; set-up: scale not given: the % may be the effect or the level left
Mus musculus [16] = test: Reduction in plasma LDL level in LDL receptor/ApoE deficient mouse at 80 to 100 mg/kg/day mixed with R3 chow diet by FPLC method relative to untreated control; set-up: scale not given: the % may be the effect or the level left
Mus musculus [17] = test: Effect on plasma HDL level in LDL receptor/ApoE deficient mouse at 80 to 100 mg/kg/day mixed with R3 chow diet by FPLC method relative to untreated control

SMILES: CCCC[C@]1(CC)CS(=O)(=O)c2cc(O[C@@H]3O[C@H](C(=O)O)[C@@H](O)[C@H](O)[C@H]3O)ccc2[C@@H](c2ccccc2)N1
- Activity (Mus musculus [1]): 28%
- Activity (Mus musculus [2]): 22 - 36%
- Activity (Mus musculus [3]): 71%
- Activity (Mus musculus [4]): 20 - 29%
- Activity (Mus musculus [5]): 35 - 42%
- Activity (Mus musculus [6]): 7 - 23%
- Activity (Mus musculus [7]): 15%
- Activity (Mus musculus [8]): 64%
- Activity (Mus musculus [9]): 43%
- Activity (Mus musculus [10]): 54 - 55%
- Activity (Mus musculus [11]): 54 - 62%
- Activity (Mus musculus [12]): 9%
- Activity (Mus musculus [13]): 64%
- Activity (Mus musculus [14]): 69%
- Activity (Mus musculus [15]): 14%

SMILES: CC(C)c1c(C(=O)Nc2ccccc2)c(-c2ccccc2)c(-c2ccc(F)cc2)n1CC[C@@H](O)C[C@@H](O)CC(=O)[O-].CC(C)c1c(C(=O)Nc2ccccc2)c(-c2ccccc2)c(-c2ccc(F)cc2)n1CC[C@@H](O)C[C@@H](O)CC(=O)[O-].[Ca+2] [ATORVASTATIN CALCIUM]
- Activity (Mus musculus [16]): 43%
- Activity (Mus musculus [17]): 22%
